Reference: patent US7348425B2, “Inhibitors of HCV replication” (Bristol-Myers Squibb Company, priority 2004, dated 2008)
Like-named read-outs stand apart in the source and are kept apart here.

Columns and labels:
HCV replicon = HCV replicon FRET assay; format: cell-based; settings: Hepatitis C virus
Summary of the method: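 Replicon cells (± Renilla luciferase reporter) incubated with titrated compound at 37 °C; NS3 protease activity read by FRET peptide cleavage (20 uM EDANS/DABCYL substrate, 340/490 nm kinetic) or luciferase.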

[1] = biological target: T1, HCV NS5B RdRp genotype 1b (Hepatitis C virus genotype 1b, UniProt Q9WMX2); experiment: Modified HCV NS5B RdRp enzyme assay (with preincubation); format: biochemical
T1 construct: The protein was expressed with an 18 amino acid C-terminal truncation to enhance the solubility; made in house; host or cells: E. coli BL21 (DE3), pET21a
Summary of the method: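 C-terminally truncated (Δ18) genotype 1b NS5B from E. coli was preincubated (14 nM) with compound, then reaction started with polyA template (0.2 nM), ³H-UTP (0.29 μM) and dT12 primer (20 nM) precaptured on SPA beads. Reaction ran 4 h at 30 °C in pH 7.5 Hepes buffer with 2% DMSO. IC50 came from seven concentrations.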

[2] = modified method (with preincubation)

T1 sequence (Q9WMX2 2420-2992): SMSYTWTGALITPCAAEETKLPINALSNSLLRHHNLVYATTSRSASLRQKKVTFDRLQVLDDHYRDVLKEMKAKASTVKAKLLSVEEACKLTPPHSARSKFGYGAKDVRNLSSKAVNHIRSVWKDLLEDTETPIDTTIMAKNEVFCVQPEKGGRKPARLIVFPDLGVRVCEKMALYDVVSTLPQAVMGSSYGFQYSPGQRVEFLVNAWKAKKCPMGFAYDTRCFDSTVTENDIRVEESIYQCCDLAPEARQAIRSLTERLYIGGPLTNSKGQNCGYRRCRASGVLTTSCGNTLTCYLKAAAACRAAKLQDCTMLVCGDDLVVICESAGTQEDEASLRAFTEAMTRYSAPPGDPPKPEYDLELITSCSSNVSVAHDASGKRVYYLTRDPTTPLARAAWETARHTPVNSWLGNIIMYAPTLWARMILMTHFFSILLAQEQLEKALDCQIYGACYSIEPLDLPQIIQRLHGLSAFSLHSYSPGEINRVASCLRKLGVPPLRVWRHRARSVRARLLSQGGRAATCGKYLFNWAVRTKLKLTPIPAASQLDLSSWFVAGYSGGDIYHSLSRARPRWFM

| SMILES | EC50 (HCV replicon; FRET assay, read-out: EC50) [µM] | IC50 ([1]; preincubation protocol) [µM] | IC50 [1, 2] [µM] | EC50 (HCV replicon) [µM] |
| --- | --- | --- | --- | --- |
| COc1cccc2c1C=C(C(=O)N1C[C@@H](C)O[C@@H](C)C1)Cn1c-2c(C2CCCCC2)c2ccc(C(=O)O)cc21 | 0.05 to 1 | 0.01 to 1 | – | – |
| COC(=O)c1ccc2c(C3CCCCC3)c3n(c2c1)CCNc1ccccc1-3 | 0.01 to 1 | – | > 1 | – |
| CN(C)CCNC(=O)C1=Cc2ccccc2-c2c(C3CCCCC3)c3ccc(C(=O)O)cc3n2C1 | 0.01 to 1 | – | 0.02 to 1 | – |
| COC(=O)c1ccc2c(C3CCCCC3)c3n(c2c1)C=C(C#N)Cc1ccccc1-3 | 0.01 to 1 | – | > 1 | – |
| COC(=O)/C=C/c1ccc(NC(=O)C2(NC(=O)c3ccc4c(C5CCCCC5)c5n(c4c3)C[C@@H](O)[C@@H](O)c3ccccc3-5)CCCC2)cc1 | < 0.1 | – | 0.02 to 1 | – |
| COC(=O)c1ccc2c(C3CCCCC3)c3n(c2c1)CC(C(=O)N1C[C@@H](C)O[C@@H](C)C1)=Cc1ccccc1-3 | 1 to 10 | – | > 1 | – |
| c1cnc2c(c1)-c1c(C3CCCCC3)c3ccc(-c4nnn[nH]4)cc3n1CCC2 | 1 to 10 | – | 0.02 to 1 | – |
| Cn1c(C(=O)O)cc2cc(NC(=O)C3(NC(=O)c4ccc5c(C6CCCCC6)c6n(c5c4)CCNc4ccccc4-6)CCCC3)ccc21 | 0.01 to 1 | – | 0.02 to 1 | – |
| COC(=O)/C=C/c1ccc(NC(=O)C2(NC(=O)c3ccc4c(C5CCCCC5)c5n(c4c3)CCCc3sc(N)nc3-5)CCCC2)cc1 | > 10 | – | > 1 | – |
| CC(C)(C)OC(=O)N1C/C=C\Cn2c(c(C3CCCCC3)c3ccc(C(=O)O)cc32)-c2cnccc21 | > 10 | – | > 1 | – |
| O=C(O)c1ccc2c(C3CCCCC3)c3n(c2c1)CC(C(=O)N1CCOCC1)Cc1cccnc1-3 (stereo not drawn) | 1 to 10 | – | 0.02 to 1 | – |
| COC(=O)C1=Cc2c(OC)cccc2-c2c(C3CCCCC3)c3ccc(C(=O)OC)cc3n2C1 | > 3.3 | > 4 | – | – |
| CC(C)S(=O)(=O)NC(=O)c1ccc2c(C3CCCCC3)c3n(c2c1)CC(C(=O)N1CCOCC1)=Cc1ccccc1-3 | 0.01 to 1 | – | 0.02 to 1 | – |
| O=C(NS(=O)(=O)C1CC1)c1ccc2c(C3CCCCC3)c3n(c2c1)CC=Cc1ncccc1-3 | 1 to 10 | – | 0.02 to 1 | – |
| COc1ccc2c(c1)C=C(C(=O)N1CCOCC1)Cn1c-2c(C2CCCCC2)c2ccc(C(=O)NS(=O)(=O)N(C)C)cc21 | – | – | 0.02 to 1 | 0.01 to 1 |
| CC1=C(C(=O)N2CCOCC2)Cn2c(c(C3CCCCC3)c3ccc(C(=O)O)cc32)-c2ccccc21 | 0.01 to 1 | – | 0.02 to 1 | – |
| O=C(O)c1ccc2c(C3CCCCC3)c3n(c2c1)CC(C(=O)O)Cc1ccccc1-3 (stereo not drawn) [drawing 305] | > 10 | – | 0.02 to 1 | – |
| COC(=O)c1ccc2c(C3CCCCC3)c3n(c2c1)CC(C(=O)O)=C(C)c1ccccc1-3 | 1 to 10 | – | > 1 | – |
| COC(=O)c1ccc2c(C3CCCCC3)c3n(c2c1)CC(C(=O)O)=Cc1cc(OC)ccc1-3 | 1 to 10 | – | 0.02 to 1 | – |
| COC(=O)C1=C(C)c2ccccc2-c2c(C3CCCCC3)c3ccc(C(=O)OC)cc3n2C1 | 0.01 to 1 | – | > 1 | – |

| SMILES | EC50 (HCV replicon; FRET assay, read-out: EC50) [µM] | IC50 ([1]; preincubation protocol) [µM] | IC50 [1, 2] [µM] | EC50 (HCV replicon) [µM] |
| --- | --- | --- | --- | --- |
| COc1ccc2c(c1)C=C(C(=O)N1[C@H](C)CC[C@H]1C)Cn1c-2c(C2CCCCC2)c2ccc(C(=O)NS(=O)(=O)N(C)C)cc21 | 0.05 to 1 | 0.01 to 1 | – | – |
| CN(C)S(=O)(=O)NC(=O)c1ccc2c(C3CCCCC3)c3n(c2c1)CCCc1ncccc1-3 | 0.01 to 1 | – | 0.02 to 1 | – |
| O=C(O)/C=C/c1ccc(NC(=O)C2(NC(=O)c3ccc4c(C5CCCCC5)c5n(c4c3)CCNc3ccccc3-5)CCCC2)cc1 | 0.01 to 1 | – | 0.02 to 1 | – |
| O=C(O)/C=C/c1ccc(NC(=O)C2(NC(=O)c3ccc4c(C5CCCCC5)c5n(c4c3)CCCN(CCO)c3ccccc3-5)CCCC2)cc1 | 0.01 to 1 | – | 0.02 to 1 | – |
| CN(C)C(=O)C1=Cc2ccccc2-c2c(C3CCCCC3)c3ccc(C(=O)NS(=O)(=O)N(C)C)cc3n2C1 | 0.01 to 1 | – | 0.02 to 1 | – |
| O=C1Cc2ccccc2-c2c(C3CCCCC3)c3ccc(C(=O)O)cc3n2C1 | 1 to 10 | – | 0.02 to 1 | – |
| CC(C)NS(=O)(=O)NC(=O)c1ccc2c(C3CCCCC3)c3n(c2c1)CC(C(=O)N1CCOCC1)=Cc1ccccc1-3 | 0.01 to 1 | – | 0.02 to 1 | – |
| COC(=O)c1ccc2c(C3CCCCC3)c3n(c2c1)CC(C(=O)OCc1ccccc1)=Cc1ccccc1-3 [drawing 223] | 1 to 10 | – | > 1 | – |
| O=C1Cn2c(c(C3CCCCC3)c3ccc(C(=O)NC4(C(=O)Nc5ncc(-c6ccc(C(=O)O)cc6)s5)CCCC4)cc32)-c2ccccc2N1 | 0.01 to 1 | – | 0.02 to 1 | – |
| O=C(O)c1ccc2c(C3CCCCC3)c3c4ccccc4[nH]c(=O)n3c2c1 | 0.01 to 1 | – | > 1 | – |
| O=C(O)c1ccc2c(C3CCCCC3)c3n(c2c1)CCOc1ncccc1-3 | 1 to 10 | – | 0.02 to 1 | – |
| COC(=O)c1ccc2c(C3CCCCC3)c3n(c2c1)C/C(=N/O)Cc1ccccc1-3 | 0.01 to 1 | – | > 1 | – |
| CCN(CC)C1CCN(C(=O)C2=Cc3ccccc3-c3c(C4CCCCC4)c4ccc(C(=O)NS(=O)(=O)N(C)C)cc4n3C2)C1 (stereo not drawn) | 0.01 to 1 | – | 0.02 to 1 | – |
| NC(=O)C1Cc2ccccc2-c2c(C3CCCCC3)c3ccc(C(=O)NC4(C(=O)Nc5ccc(/C=C/C(=O)O)cc5)CCCC4)cc3n2C1 (stereo not drawn) | 0.01 to 1 | – | 0.02 to 1 | – |
| N#CC1C(=O)Cn2c(c(C3CCCCC3)c3ccc(C(=O)O)cc32)-c2ccccc21 (stereo not drawn) | > 10 | – | 0.02 to 1 | – |
| NC(=O)c1ccc2c(C3CCCCC3)c3n(c2c1)CCCc1ncccc1-3 | 1 to 10 | – | 0.02 to 1 | – |
| COC(=O)/C=C/c1ccc(NC(=O)C2(NC(=O)c3ccc4c(C5CCCCC5)c5n(c4c3)CCCc3ocnc3-5)CCCC2)cc1 | 1 to 10 | – | > 1 | – |
| CNCCNC(=O)c1ccc2c(C3CCCCC3)c3n(c2c1)CC(C(=O)N1C[C@@H](C)O[C@@H](C)C1)=Cc1ccccc1-3 | 0.05 to 1 | 0.01 to 1 | – | – |
| O=C(O)/C=C/c1cccc(-c2nc(C3(NC(=O)c4ccc5c(C6CCCCC6)c6n(c5c4)CC=Cc4ccccc4-6)CCCC3)c[nH]2)c1 | 0.01 to 1 | – | 0.02 to 1 | – |
| COC(=O)/C=C/c1ccc(NC(=O)C2(NC(=O)c3ccc4c(C5CCCCC5)c5n(c4c3)CC(=O)Nc3cccnc3-5)CCCC2)cc1 [drawing 159] | < 0.1 | – | 0.02 to 1 | – |

| SMILES | EC50 (HCV replicon; FRET assay, read-out: EC50) [µM] | IC50 ([1]; preincubation protocol) [µM] | IC50 [1, 2] [µM] | EC50 (HCV replicon) [µM] |
| --- | --- | --- | --- | --- |
| CN(C)S(=O)(=O)NC(=O)c1ccc2c(C3CCCCC3)c3n(c2c1)CC(C(=O)N1CCOCC1)=Cc1cccnc1-3 | 0.01 to 1 | – | 0.02 to 1 | – |
| COC(=O)/C=C/c1ccc(NC(=O)C2(NC(=O)c3ccc4c(C5CCCCC5)c5n(c4c3)C[C@@H](O)[C@@H](O)c3ncccc3-5)CCCC2)cc1 | 0.01 to 1 | – | 0.02 to 1 | – |
| O=C(O)/C=C/c1ccc(NC(=O)C2(NC(=O)c3ccc4c(C5CCCCC5)c5n(c4c3)CCCc3cc(O)ccc3-5)CCCC2)cc1 | 0.01 to 1 | – | 0.02 to 1 | – |
| O=C(C1=Cc2ccccc2-c2c(C3CCCCC3)c3ccc(C(=O)N4CCOCC4)cc3n2C1)N1CCOCC1 | 1 to 10 | – | > 1 | – |
| CN(C)CCN1C(=O)Cn2c(c(C3CCCCC3)c3ccc(C(=O)O)cc32)-c2ccccc21 | 0.01 to 1 | – | 0.02 to 1 | – |
| COC(=O)c1ccc2c(C3CCCCC3)c3n(c2c1)CC(C(=O)N1C[C@@H](C)O[C@@H](C)C1)=Cc1cc(OC)ncc1-3 | > 1 | > 1 | – | – |
| O=C(O)/C=C/c1ccc(NC(=O)C2(NC(=O)c3ccc4c(C5CCCCC5)c5n(c4c3)CC(C(=O)N3CCCC(O)C3)Cc3ccccc3-5)CCCC2)cc1 (stereo not drawn) | 0.01 to 1 | – | 0.02 to 1 | – |
| COc1ccc2c(c1)C=C(C(=O)N1CCC[C@H](O)C1)Cn1c-2c(C2CCCCC2)c2ccc(C(=O)NS(=O)(=O)N(C)C)cc21 | 0.05 to 1 | 0.01 to 1 | – | – |
| C[C@@H]1CN(C(=O)C2=Cc3ccccc3-c3c(C4CCCCC4)c4ccc(C(=O)NC5(C(=O)Nc6nccs6)CCCC5)cc4n3C2)C[C@H](C)O1 | 0.05 to 1 | 0.01 to 1 | – | – |
| O=C(O)c1ccc2c(C3CCCCC3)c3n(c2c1)C/C=C\CN(CCO)c1ccccc1-3 | 1 to 10 | – | > 1 | – |
| CN(C)S(=O)(=O)NC(=O)c1ccc2c(C3CCCCC3)c3n(c2c1)CC=Cc1ncccc1-3 | 1 to 10 | – | 0.02 to 1 | – |
| Cc1nc2c(s1)CCCn1c-2c(C2CCCCC2)c2ccc(C(=O)O)cc21 | > 10 | – | > 1 | – |
| CC1CN(C(=O)C2=Cc3ccccc3-c3c(C4CCCCC4)c4ccc(C(=O)NS(=O)(=O)N(C)C)cc4n3C2)CC(C)N1 (stereo not drawn) | 0.01 to 1 | – | 0.02 to 1 | – |
| COC(=O)c1ccc2c(C3CCCCC3)c3n(c2c1)CC(C(=O)N1C[C@@H](C)N[C@@H](C)C1)=Cc1cc(F)ccc1-3 | 1 to 10 | 0.01 to 1 | – | – |
| CCOC(=O)c1nc(-c2ccc(NC(=O)C3(NC(=O)c4ccc5c(C6CCCCC6)c6n(c5c4)CCCc4ccccc4-6)CCCC3)cc2)cs1 | 0.01 to 1 | – | > 1 | – |
| CCOC(=O)/C=C/c1ccc(NC(=O)C2(NC(=O)c3ccc4c(C5CCCCC5)c5n(c4c3)CCCc3cc(O)ccc3-5)CCCC2)cc1 | 0.01 to 1 | – | > 1 | – |
| COc1cc(CNC(=O)c2ccc3c(C4CCCCC4)c4n(c3c2)CC(C(=O)N2CCOCC2)=Cc2ccccc2-4)ccc1O | 0.01 to 1 | – | 0.02 to 1 | – |
| COc1ccc2c(c1)C=C(C(=O)N1CCOCC1)Cn1c-2c(C2CCCCC2)c2ccc(C(=O)NS(=O)(=O)C3CC3)cc21 | 0.05 to 1 | 0.01 to 1 | – | – |
| CNS(=O)(=O)NC(=O)c1ccc2c(C3CCCCC3)c3n(c2c1)CC(C(=O)N1C[C@@H](C)O[C@@H](C)C1)Cc1ccccc1-3 (stereo partly drawn) | 0.05 to 1 | 0.01 to 1 | – | – |
| CN(C)CCNC(=O)C1=Cc2ccccc2-c2c(C3CCCCC3)c3ccc(C(=O)NC4(C(=O)Nc5ccc(/C=C/C(=O)O)cc5)CCCC4)cc3n2C1 | 0.01 to 1 | – | 0.02 to 1 | – |
